In ChEMBL document CHEMBL4428125, “8-Substituted 1,3-dimethyltetrahydropyrazino[2,1-f]purinediones: Water-soluble adenosine receptor antagonists and monoamine oxidase B inhibitors” (Bioorg Med Chem, 2016):
The source made the active and inactive calls. The rule behind the calls is not given here.

Legend:
[1] = biological target: T1, Adenosine receptor A1 (Rattus norvegicus) (UniProt P25099); experiment: Displacement of [3H]CCPA from A1 receptor in rat brain cortex membranes at 1.5 uM by liquid scintillation counting method; assay type: cell membranes
T1 sequence (whole entry): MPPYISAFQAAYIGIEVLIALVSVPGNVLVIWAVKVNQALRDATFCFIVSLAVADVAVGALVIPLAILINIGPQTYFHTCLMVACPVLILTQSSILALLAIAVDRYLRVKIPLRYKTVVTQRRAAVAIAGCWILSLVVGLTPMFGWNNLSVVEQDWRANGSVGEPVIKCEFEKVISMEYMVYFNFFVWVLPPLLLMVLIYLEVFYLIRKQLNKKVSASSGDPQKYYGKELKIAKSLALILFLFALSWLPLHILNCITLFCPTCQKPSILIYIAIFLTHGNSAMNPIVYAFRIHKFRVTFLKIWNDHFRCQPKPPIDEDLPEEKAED

Adenosine receptor A2a [2] = biological target: Adenosine receptor A2a (Rattus norvegicus, UniProt P30543); experiment: Displacement of [3H]MSX from A2A receptor in rat brain striatum membranes measured after 30 mins by liquid scintillation counting method; assay type: cell membranes
[3] = biological target: T2, Amine oxidase [flavin-containing] B (Rattus norvegicus, UniProt P19643); experiment: Inhibition of recombinant rat MAO-B preincubated for 30 mins followed by addition of p-tyramine as substrate measured over 45 mins by Amplex Red MAO assay
T2 sequence (P19643 whole entry): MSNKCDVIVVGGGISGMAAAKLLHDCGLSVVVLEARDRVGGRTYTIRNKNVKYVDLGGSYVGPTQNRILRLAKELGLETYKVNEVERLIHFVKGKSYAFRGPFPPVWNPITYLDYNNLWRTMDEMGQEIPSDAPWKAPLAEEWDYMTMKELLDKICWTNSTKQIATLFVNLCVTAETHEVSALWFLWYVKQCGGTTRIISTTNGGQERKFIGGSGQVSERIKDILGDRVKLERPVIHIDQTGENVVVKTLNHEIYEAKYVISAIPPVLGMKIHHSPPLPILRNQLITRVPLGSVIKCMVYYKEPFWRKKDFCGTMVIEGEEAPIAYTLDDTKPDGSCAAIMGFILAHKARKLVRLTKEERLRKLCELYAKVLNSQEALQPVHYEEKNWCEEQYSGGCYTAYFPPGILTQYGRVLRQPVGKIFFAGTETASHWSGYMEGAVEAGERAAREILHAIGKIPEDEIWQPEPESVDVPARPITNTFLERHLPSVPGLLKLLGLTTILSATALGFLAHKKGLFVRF

[4] = biological target: T3, Adenosine receptor A2b (Homo sapiens) (UniProt P29275); experiment: Displacement of [3H]PSB-603 from human A2B receptor expressed in CHO cell membrane at 1 uM relative to control; assay type: cell membranes
T3 sequence (whole entry): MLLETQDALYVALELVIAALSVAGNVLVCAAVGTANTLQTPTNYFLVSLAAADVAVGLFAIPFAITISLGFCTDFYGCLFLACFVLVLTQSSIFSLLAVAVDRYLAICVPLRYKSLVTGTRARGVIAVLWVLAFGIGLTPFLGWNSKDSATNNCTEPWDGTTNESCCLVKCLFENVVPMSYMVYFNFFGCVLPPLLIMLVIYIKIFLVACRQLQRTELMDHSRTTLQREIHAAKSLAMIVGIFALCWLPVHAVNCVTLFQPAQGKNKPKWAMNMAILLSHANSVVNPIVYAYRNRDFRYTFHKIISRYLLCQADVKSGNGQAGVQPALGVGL

[5] = biological target: T4, Adenosine receptor A3 (Homo sapiens) (UniProt P0DMS8); experiment: Displacement of [3H]PSB-11 from human A3 receptor expressed in CHO cell membrane at 10 uM by liquid scintillation counting method relative to control relative to control; assay type: cell membranes
T4 sequence (whole entry): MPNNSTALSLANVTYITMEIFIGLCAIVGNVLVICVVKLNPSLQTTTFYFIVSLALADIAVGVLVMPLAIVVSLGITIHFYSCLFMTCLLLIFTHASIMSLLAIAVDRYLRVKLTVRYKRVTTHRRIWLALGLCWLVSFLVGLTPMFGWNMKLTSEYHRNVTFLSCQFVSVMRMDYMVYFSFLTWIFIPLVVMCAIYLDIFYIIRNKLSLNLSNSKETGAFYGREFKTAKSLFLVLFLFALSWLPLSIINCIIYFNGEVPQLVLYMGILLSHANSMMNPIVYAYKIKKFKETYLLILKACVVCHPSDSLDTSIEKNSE

[6] = biological target: T5, Adenosine receptor A1 (Homo sapiens) (UniProt P30542); experiment: Displacement of [3H]CCPA from human A1 receptor expressed in CHO cell membrane at 10 uM by liquid scintillation counting method; assay type: cell membranes
T5 sequence (whole entry): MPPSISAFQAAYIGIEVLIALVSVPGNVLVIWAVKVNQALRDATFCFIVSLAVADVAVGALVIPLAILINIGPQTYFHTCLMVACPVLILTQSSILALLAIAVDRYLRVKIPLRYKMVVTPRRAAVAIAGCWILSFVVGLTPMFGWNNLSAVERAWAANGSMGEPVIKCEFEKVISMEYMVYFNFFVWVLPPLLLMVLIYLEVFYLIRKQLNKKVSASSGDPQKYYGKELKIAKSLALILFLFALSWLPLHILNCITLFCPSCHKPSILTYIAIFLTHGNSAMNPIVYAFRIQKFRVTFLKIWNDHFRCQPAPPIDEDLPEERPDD

Adenosine receptor A1 = biological target: T6, Adenosine receptor A1 (Rattus norvegicus, UniProt P25099); experiment: Displacement of [3H]CCPA from A1 receptor in rat brain cortex membranes by liquid scintillation counting method; assay type: cell membranes
T6 sequence (P25099 whole entry): T1 sequence (whole entry)

[7] = biological target: T5, Adenosine receptor A1 (Homo sapiens); experiment: Agonist activity at recombinant human A1 receptor expressed in CHO cells assessed as inhibition of forskolin-induced cAMP accumulation at 10 uM preincubated for 20 mins prior to forskolin-stimulation measure after 5 mins by liquid scintillation counting method; assay type: functional, cell-based
[8] = biological target: T5, Adenosine receptor A1 (Homo sapiens); experiment: Agonist activity at recombinant human A1 receptor expressed in CHO cells assessed as inhibition of forskolin-induced cAMP accumulation at 1 uM preincubated for 20 mins prior to forskolin-stimulation measure after 5 mins by liquid scintillation counting method; assay type: functional, cell-based
Adenosine receptor A2a [9] = biological target: T7, Adenosine receptor A2a (Homo sapiens, UniProt P29274); experiment: Agonist activity at recombinant human A2A receptor expressed in CHO cells assessed as increase in forskolin-induced cAMP level at 10 uM preincubated for 20 mins prior to forskolin-stimulation measure after 5 mins by liquid scintillation counting method; assay type: functional, cell-based
Adenosine receptor A2a [10] = biological target: T7, Adenosine receptor A2a; experiment: Agonist activity at recombinant human A2A receptor expressed in CHO cells assessed as increase in forskolin-induced cAMP level at 1 uM preincubated for 20 mins prior to forskolin-stimulation measure after 5 mins by liquid scintillation counting method; assay type: functional, cell-based
[11] = biological target: T3, Adenosine receptor A2b (Homo sapiens); experiment: Displacement of [3H]PSB-603 from human A2B receptor expressed in CHO cell membrane at 0.3 uM relative to control; assay type: cell membranes

Chain of Adenosine receptor A2a (Rattus norvegicus, UniProt P30543) (P30543 whole entry): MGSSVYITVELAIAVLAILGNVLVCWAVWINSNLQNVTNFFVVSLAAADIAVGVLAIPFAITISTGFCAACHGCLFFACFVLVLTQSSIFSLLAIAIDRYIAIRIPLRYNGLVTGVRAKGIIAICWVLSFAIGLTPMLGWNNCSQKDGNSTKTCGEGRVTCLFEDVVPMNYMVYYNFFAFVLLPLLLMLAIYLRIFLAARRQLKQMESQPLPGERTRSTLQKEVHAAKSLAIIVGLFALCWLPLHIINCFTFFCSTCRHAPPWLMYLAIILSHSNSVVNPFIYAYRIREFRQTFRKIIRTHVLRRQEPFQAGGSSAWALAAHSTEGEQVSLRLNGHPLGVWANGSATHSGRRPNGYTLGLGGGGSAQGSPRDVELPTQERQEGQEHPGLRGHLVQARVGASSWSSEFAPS
T7 sequence (P29274 whole entry): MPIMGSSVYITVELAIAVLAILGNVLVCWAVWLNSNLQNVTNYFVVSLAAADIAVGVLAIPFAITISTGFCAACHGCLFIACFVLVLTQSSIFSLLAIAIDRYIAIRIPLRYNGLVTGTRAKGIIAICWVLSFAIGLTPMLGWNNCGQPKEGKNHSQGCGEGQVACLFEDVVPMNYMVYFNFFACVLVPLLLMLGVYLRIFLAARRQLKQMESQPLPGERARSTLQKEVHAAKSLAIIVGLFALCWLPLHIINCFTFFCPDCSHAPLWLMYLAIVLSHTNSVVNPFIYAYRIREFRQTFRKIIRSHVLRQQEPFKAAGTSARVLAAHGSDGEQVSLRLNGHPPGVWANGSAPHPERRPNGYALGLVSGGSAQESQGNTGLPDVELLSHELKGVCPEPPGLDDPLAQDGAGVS

SMILES	Activity [1] [%]	Ki (Adenosine receptor A2a [2]) [nM]	IC50 [3] [nM]	Activity [4] [%]	Activity [5] [%]	Activity [6] [%]	Ki (Adenosine receptor A1) [nM]	Activity [7]	Activity [8]	Activity (Adenosine receptor A2a [9])	Activity (Adenosine receptor A2a [10])	Activity [11] [%]
Cn1c(=O)c2c(nc3n2CCN(c2cccc(Cl)c2)C3)n(C)c1=O	37	557	251	23	20	37						
Cn1c(=O)c2c(nc3n2CCN([C@@H]2CCCc4ccccc42)C3)n(C)c1=O		510	100				100	inactive	inactive	inactive	inactive	1
